Experimental findings from patent publication US20110269838A1, “NOVEL PROCESSES AND PURE POLYMORPHS” (priority 2008, published 2011) are described below.

The data set can be described thus: Polymorphic stability on storage. Particulars: kept at 40° C.±2° C. and relative humidity 75%±5% for 6 months; samples prepared in examples 1 to 5. The format is physicochemical.

Regarding `O=C(CCCCCCC(=O)Nc1ccccc1)NO` [crystalline vorinostat form I, N-hydroxy-N′-phenyl-octanediamide], the “polymorphic stability (conversion over time to other polymorphs)” value is reported as “no conversion over time to other polymorphs”.
